Data from patent US20180085381A1, “Adjunctive Therapy With 25-Hydroxyvitamin D” (priority 2014, published 2018).
Values belong to the molecule of their own block, whether it stands above or below them.

Assays:
[1] = system: patients with bone metastases; settings: patients with bone metastases treated with zoledronic acid; cited from earlier work
[2] = system: adult male and female patients with osteoporosis; experiment: Efficacy study in osteoporosis patients treated with an antiresorptive agent (denosumab); type: in vivo, human; settings: for incidence of hypocalcemia and severity of secondary hyperparathyroidism: once stable dosing has been achieved, denosumab-treated
[3] = system: adult male patients with bone-metastasized castration-resistant prostate cancer; experiment: Efficacy study in prostate cancer patients treated with denosumab; settings: for incidence of hypocalcemia and severity of SHPT and hypercalcemia: once stable dosing has been achieved, denosumab-treated
Procedure: In a randomized, double-blind controlled study, patients are treated with denosumab (120 mg every four weeks). All denosumab-treated patients are randomized to receive daily oral treatment with one softgel capsule containing either 30 mcg of 25-hydroxyvitamin D3 in a modified release formulation or 400 IU of Vitamin D3 in an immediate release formulation. A total of 500 subjects participate in this study, all of whom are aged 18 years or older with histologically confirmed prostate cancer. […] All patients receive a radioisotope bone scan during screening with subsequent imaging by CT, MRI, or plain radiograph if needed to confirm bone metastases. All subjects receive calcium supplements (500 mg/day) and abstain from taking other Vitamin D supplements for 60 days before study start and continuing through study termination, and from significant sun exposure.
All subjects begin daily dosing with softgel capsules at the start of denosumab treatment. Serum total 25-hydroxyvitamin D, PTH, calcium, phosphorus, N- and C-telopeptides, and P1NP, and urinary calcium, phosphorus and creatinine, are measured monthly. Radiographic bone scans are conducted every 6 months to detect skeletal metastases, with a second imaging modality (CT, MRI, or plain radiograph) used to confirm diagnosis of any metastases detected. Bone mineral density at four sites (total hip, femoral neck, ⅓ radius and lumbar spine) is determined at the start of the study and thereafter at yearly intervals. After 3 months, the daily dosage of 25-hydroxyvitamin D3 capsules is maintained unchanged in patients whose serum total 25-hydroxyvitamin D is between 50 and 90 ng/mL, and increased by one 30 mcg capsule in patients whose serum total 25-hydroxyvitamin D is below 50 ng/mL.

[4] = system: adult female patients with breast cancer; experiment: Efficacy study in breast cancer patients treated with denosumab; type: in vivo, human; settings: for incidence of hypocalcemia and severity of secondary hyperparathyroidism: once stable dosing has been achieved, denosumab-treated
[5] = system: adult patients diagnosed with metastases in bone originating from breast or prostate cancer; experiment: Efficacy study in patients with metastatic bone disease receiving an antiresorptive agent (6-month, placebo-controlled); type: in vivo, human
Procedure: Denosumab or zoledronic acid are administered according to the typical standard of care for each patient's condition. […] Samples are collected at monthly intervals for monitoring serum and urine levels of calcium, plasma levels of PTH and serum total 25-hydroxyvitamin D. Serum markers of tumor burden and bone metabolism, as well as cancer progression are assessed at 3-month intervals.

[6] = system: adult patients diagnosed with metastases in bone originating from breast or prostate cancer; type: in vivo, human
Procedure: At the start of the study, all patients have plasma PTH greater than 70 pg/mL as evidence of SHPT, serum calcium less than 9.8 mg/dL, spot urine Ca:Cr ratio≦0.25 (≦250 mg/g creatinine) and an estimated glomerular filtration rate greater than 15 mL/min/1.73 m^2. […] Denosumab or zoledronic acid are administered according to the typical standard of care for each patient's condition.
The 52-week study consists of a 40 week dose escalation phase followed by a 12-week maintenance phase. At the end of the maintenance phase, there is a two-week follow up phase. At the start of the study, all patients receive an initial daily dose of 30 mcg 25-hydroxyvitamin D3, which is increased at four-week intervals over the course of the dose escalation phase up to a maximum daily dose of 300 mcg. The daily dose achieved by the end of the dose escalation study is the daily dose administered during the maintenance phase.
Blood samples are collected at 2-week intervals for monitoring serum levels of calcium and phosphorus. Samples are collected at 4-week intervals for monitoring plasma levels of PTH and PTHrP and serum total 25-hydroxyvitamin D, 24,25-dihydroxyvitamin D3, calcitriol, and free and total calcifediol. Serum vitamin D metabolites and markers of bone metabolism, immune function, and tumor burden are measured at the beginning of the dose escalation phase and at the beginning and end of the maintenance phase. Urine samples are collected at 4-week intervals for monitoring the Ca/Cr ratio and urine chemistry. The genotype of vitamin D binding protein is determined for each subject at the beginning of the dose escalation phase.

[7] = system: castration-resistant prostate cancer or estrogen-independent breast cancer metastatic to bone; experiment: Efficacy study in patients with metastatic bone disease for prevention of SREs (24-month, placebo-controlled); type: in vivo, human
Procedure: Denosumab or zoledronic acid are administered according to the typical standard of care for each patient's condition. Patients are monitored for SREs, including by appropriate non-invasive imaging techniques, and serum markers of tumor burden and bone metabolism at 3-month intervals, and at monthly intervals for serum and urine calcium levels and plasma PTH. Cancer progression is monitored at quarterly intervals.

[8] = with denosumab, versus denosumab and vitamin D3
[9] = 6 months, with denosumab or zoledronic acid, compared to placebo
[10] = with denosumab or zoledronic acid, compared to placebo combination
[11] = with denosumab, 24 months, compared to denosumab and Vitamin D3
[12] = 24 months, with denosumab or zoledronic acid, compared to placebo

SMILES: O=P(O)(O)C(O)(Cn1ccnc1)P(=O)(O)O [zoledronic acid]
patients who developed hypocalcemia [1]: 39%

SMILES: C=C1CC[C@H](O)C/C1=C/C=C1\CCC[C@]2(C)[C@@H]([C@H](C)CCCC(C)C)CC[C@@H]12 [Vitamin D3, cholecalciferol, reference compound]
incidence of hypocalcemia and severity of secondary hyperparathyroidism [2]: occur more frequently | incidence of hypocalcemia and severity of SHPT and hypercalcemia [3]: more frequently | incidence of hypocalcemia and severity of secondary hyperparathyroidism [4]: occur more frequently

serum levels of 25-hydroxyvitamin D3 after 24 months ([2]; human, in vivo): higher and more consistent | serum levels of 25-hydroxyvitamin D3 after 24 months [3, 8]: higher and more consistent | serum levels of 25-hydroxyvitamin D3 after 24 months ([4]; human, in vivo): higher and more consistent | change in serum 1,25-dihydroxyvitamin D ([6]; human, in vivo): significant increases | change in serum 24,25-dihydroxyvitamin D ([6]; human, in vivo): significant increases | change in serum total 25-hydroxyvitamin D ([6]; human, in vivo): significant increases | serum calcium in the dose escalation phase ([6]; human, in vivo): gradually rises
SMILES: C=C1CC[C@H](O)C/C1=C/C=C1\CCC[C@]2(C)[C@@H]([C@H](C)CCCC(C)(C)O)CC[C@@H]12 [25-hydroxyvitamin D3]
side effects related to calcium and PTH metabolism ([2]; human, in vivo): without causing unacceptable side effects | incidence of hypocalcemia and severity of secondary hyperparathyroidism [2]: markedly reduced | increases in bone mineral density ([2]; with denosumab, 24 months, versus denosumab and Vitamin D3): larger increases | serum PTH levels after 24 months [2, 8]: lower | plasma PTH [5, 9]: decrease | risk of hypocalcemia [5, 9]: reduced risk | serum calcium [5, 9]: greater increase | side effects related to calcium and PTH metabolism ([5]; modified release formulation): without causing unacceptable side effects | cancer progression ([5]; modified release formulation, 6 months): delaying cancer progression | time to additional bone metastasis [5, 10]: increased delay | side effects related to calcium and PTH metabolism ([3]; modified release formulation, with denosumab): without causing unacceptable side effects | incidence of hypocalcemia and severity of SHPT and hypercalcemia [3]: markedly reduced | incidence of hypocalcemia [3, 11]: significantly lower incidence | increases in bone mineral density [3, 11]: larger increases | plasma PTH levels [3, 11]: reduced | time to first post-treatment SRE [3, 11]: significantly delayed | serum PTH levels after 24 months [3, 8]: lower | side effects related to calcium and PTH metabolism ([4]; human, in vivo): without causing unacceptable side effects | incidence of hypocalcemia and severity of secondary hyperparathyroidism [4]: markedly reduced | incidence of hypocalcemia [4, 11]: significantly lower incidence | increases in bone mineral density [4, 11]: larger increases | time to additional bone metastasis [4, 11]: significantly delayed | serum PTH levels after 24 months [4, 8]: lower | plasma PTH in the dose escalation phase ([6]; 30 to 300 mcg daily, raised at four-week intervals, with denosumab or zoledronic acid): decreases | plasma PTH [7, 12]: decrease | risk of hypocalcemia [7, 12]: reduced risk | serum calcium [7, 12]: greater increase | observed time to a post-treatment SRE ([7]; compared to placebo): significantly increasing | tumor progression ([7]; compared to placebo): inhibiting tumor progression | time to additional bone metastasis or SRE [7, 10]: increased delay
